Tests used:
zinc-free bovine insulin = target: T1, zinc-free bovine insulin (Bos taurus, UniProt P01317); experiment: Inhibition of insulin fibrillation by pyridoxal phosphate, rotator at 39° C.; assay type: physicochemical
T1 construct: A solution of zinc-free bovine insulin was prepared in phosphate buffer
Method: A solution of zinc-free bovine insulin was prepared in phosphate buffer (50 mM, pH 7.4, no sodium chloride) at concentration of 1.2 mg/ml. Two aliquots of 2.0 ml each were transferred into two separate glass tubes (sanitized in boiling water), and 0.10 ml of water was added to one tube, and 0.10 ml of pyridoxal phosphate (100 mg/ml, in water, pH 7.4) was added to the other. Both tubes were capped and put on a rotator (12 rotations per minute) in an oven at temperature of 39° C.
A solution of zinc-free bovine insulin was prepared in phosphate buffer (50 mM, pH 7.0, no sodium chloride) at concentration of 1.2 mg/ml. Two aliquots of 2.0 ml each were transferred into two separate glass tubes (sanitized in boiling water), and 0.10 ml of water was added to each tube. To 4.0 ml of the insulin solution was added 0.20 ml of pyridoxal phosphate (100 mg/ml, in water, pH 7.4) and the pH was adjusted to 7.0, and divided into two separate glass tubes (sanitized in boiling water). All the four tubes were capped and put on a rotator (12 rotations per minute) in an oven at temperature of 39° C.
A solution of zinc-free bovine insulin (50 mg) was dissolved in 0.50 ml of 0.1 N hydrochloric acid, and neutralized using 0.1 N sodium hydroxide until it turned cloudy and clear again. Then 0.667 ml of pyridoxal phosphate solution (167 mg/ml, pH 7.0 in water) was added to the insulin solution, and the pH was re-adjusted to 7.4 using dilute sodium hydroxide. The total volume was adjusted to 2.5 ml with HPLC grade water. Serial dilution using water provided four samples (1.0 ml each) of insulin concentrations at 2.0, 5.0, 10, 15 mg/ml. All the four samples in glass vials, together with 0.5 ml of the remaining insulin-pyridoxal phosphate solution (20 mg/ml) were capped and put on a rotator (12 rotations per minute) in an oven at temperature of 39° C.

BSA [1] = target: T2, BSA (Bos taurus, UniProt P02769); experiment: Reduction of aggregation of BSA induced by t-butanol, SEC HPLC; assay type: physicochemical, Bovine; conditions: BSA precipitated with t-butanol, re-dissolved in PBS
T2 construct: BSA stock solution (35%, in water, 0.85% sodium chloride, from Sigma); purchased Sigma / Sigma Aldrich
T2 sequence (P02769 25-607): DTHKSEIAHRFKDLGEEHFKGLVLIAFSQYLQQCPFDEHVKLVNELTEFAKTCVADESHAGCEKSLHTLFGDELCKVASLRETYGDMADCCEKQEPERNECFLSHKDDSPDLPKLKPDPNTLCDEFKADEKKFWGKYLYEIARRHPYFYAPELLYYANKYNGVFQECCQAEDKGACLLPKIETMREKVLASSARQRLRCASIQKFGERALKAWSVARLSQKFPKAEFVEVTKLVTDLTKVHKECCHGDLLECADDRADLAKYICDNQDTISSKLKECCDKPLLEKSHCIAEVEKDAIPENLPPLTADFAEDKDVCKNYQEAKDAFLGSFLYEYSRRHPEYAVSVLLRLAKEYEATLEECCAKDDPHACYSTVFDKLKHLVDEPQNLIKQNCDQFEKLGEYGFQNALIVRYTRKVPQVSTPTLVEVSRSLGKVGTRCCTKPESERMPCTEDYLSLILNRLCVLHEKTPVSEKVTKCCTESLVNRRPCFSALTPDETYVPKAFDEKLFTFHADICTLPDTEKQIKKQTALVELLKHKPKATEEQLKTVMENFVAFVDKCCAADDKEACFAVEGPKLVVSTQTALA
Method: To three separate test tubes containing 0.050 ml of BSA (35%, 0.85% sodium chloride) and 0.050 ml of phosphate buffer (50 mM, pH 7.4), were respectively added 0.010 ml of water, 0.010 mll of 2-formylbenzenesulfonic acid sodium salt (75 mg/ml, pH 8), and 0.010 ml of pyridoxal phosphate (100 mg/ml, pH 7.4). To each of the three tubes were then added 0.50 ml of PEG solution (75%, molecular weight 3400) followed by centrifugation to give some precipitate. The three supernatants were collected to have BSA at saturated concentrations, and to them were separately added 0.50 ml of t-butanol to have more BSA precipitates after centrifugation. The crops of precipitates from t-butanol were washed with t-butanol twice (0.75 ml each) and re-dissolved in PBS buffer (50 mM sodium phosphate, pH 7.4, 0.85% sodium chloride) for SEC HPLC analysis. Plain BSA produced about 75% of aggregates, the sample with 2-formylbenzenesulfonic acid produced about 60% of aggregates, the sample with pyridoxal phosphate produced less than 50% of aggregates.

BSA [2] = target: T2, BSA; experiment: Reduction of aggregation of BSA induced by methanol, SEC HPLC; assay type: physicochemical, Bovine; conditions: precipitated with PEG 3400 and methanol, re-dissolved in PBS
Method: BSA stock solution (0.050 ml, 35%, 0.85% sodium chloride, Sigma) was diluted with 0.050 ml of sodium phosphate buffer (50 mM, pH 7.4, no sodium chloride) and 0.050 ml of water (HPLC grade). A separate sample was prepared in the same way, but replacing the 0.050 ml of water using 0.050 ml of an excipient solution containing pyridoxal phosphate (represented as X2 in FIG. 1, 100 mg/ml in water, pH 7.4). To each of the two samples in test tubes were added 0.350 ml of an aqueous solution of polyethylene glycol (molecular weight 3400, 75%) to turn the mixtures cloudy, followed by addition of 0.50 ml of methanol (HPLC grade). Then the samples were centrifuged to collect the precipitates. The precipitates were re-dissolved in PBS buffer and analyzed on Size Exclusion Chromatography HPLC. Without excipient, about two thirds of BSA was found in the form of aggregates, while only a quarter of BSA appeared as aggregate in the samples using excipient pyridoxal phosphate.

T1 sequence (P01317 25-54 limits assumed): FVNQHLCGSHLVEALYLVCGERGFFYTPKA
T1 sequence (P01317 85-105 limits assumed): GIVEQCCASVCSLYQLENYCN

**Q.** Which “Appearance of insulin solution (fibrillation)” value (shortened to “Appearance of insulin solution”) (zinc-free bovine insulin; pH 7.0, insulin 1.2 mg/ml, 0.20 ml pyridoxal phosphate 100 mg/ml in 4.0 ml) does the source give for Cc1ncc(COP(=O)(O)O)c(C=O)c1O [pyridoxal phosphate] here?
**A.** Its value is “still remained clear beyond four weeks”.

**Q.** And the “Appearance of insulin solution” value (zinc-free bovine insulin; pH 7.4, insulin 1.2 mg/ml, 0.10 ml pyridoxal phosphate 100 mg/ml in 2.0 ml)?
**A.** Its value is “still remained clear after five weeks”.

**Q.** And the “Appearance of insulin solution” value (zinc-free bovine insulin; pH 7.4, insulin 2.0, 5.0, 10, 15 and 20 mg/ml with pyridoxal phosphate serially diluted)?
**A.** Its value is “still remained clear after three weeks”.

**Q.** What about the Aggregates produced (BSA [1]) of the same compound?
**A.** The Aggregates produced was “less than 50%”.

**Q.** And the “Fraction of BSA appearing as aggregate” value (BSA [2])?
**A.** The value was “a quarter”.
